Molecules are shown by their SMILES. Where only a bound is given, the exact number is not on record here.

This note sets out measurements from patent US11083729B2, “Methods of treating cancer with small molecule NF-κB inhibitors” (ImmuneTarget, Inc., priority 2017, dated 2021).

One assay deals with HCT116. Briefly: CellTiter-Glo IG50, Example 8, HCT116. The class given is cell-based. To be noted: Homo sapiens, HCT-116, HCT116, 72 hours. As for the experimental part: (§1) Various pancreatic, liver, colon, breast, and stomach cancer cell lines were exposed to the NF-κB inhibitors of the present invention, including, for example, IT-839, IT-843, IT-848, and IT-878, and assessed for IG50 in the CellTiter Glo 2.0 assay.
(§2) The cells were cultured in an atmosphere of 37° C., 5% CO2 and 95% humidity. All culture media and FBS were purchased from GIBCO, Hyclone or Sigma, USA. The media used for cell culture is described in the table below.
(§3) The cells were harvested during the logarithmic growth period and counted. Cell concentrations were adjusted to the appropriate number in appropriate medium and 90 μl cell suspensions were added to 96-well plates. When cells were added, the plates were shaken gently to distribute the cells evenly. Cells were incubated at 37° C. and 5% CO2.
(§4) 3× serial dilutions of test compound stock solutions with respective solvents were prepared. The stock solutions were diluted with culture medium to generate 10× working solutions of the test compounds. 10 μl of the 10× test compound solutions were added to each well in triplicate for each concentration. Plates were incubated for 72 hours in a humidified incubator at 37° C. and 5% CO2.
(§5) CellTiter-Glo (CTG) solution was thawed and equilibrated to room temperature. 50 μl of CTG were added to each well and the contents were mixed for 2 minutes on a plate shaker. Cells were incubated for 10 minutes before luminescence signal was recorded using Envision.
(§6) Cell viability was plotted with GraphPad Prism version 5 and the IG50 was calculated for each cell line. The graphical curves were fitted using a nonlinear regression model with a sigmoidal dose response. IG50 is the concentration of test drug where 100×T/C=50 (the optical density of the test well after a 3-day period of exposure to test drug is T; the control optical density is C).
On the technique in general: In ATP-based viability assays light output follows the ATP content of the culture.

The subject of a further assay is HT-29. The experiment in a line: CellTiter-Glo IG50, Example 8, HT-29. To be noted: Homo sapiens, HT-29, 72 hours. Type of assay: cell-based. The protocol:
as §1, §2, §3, §4, §5, §6

The test system of another assay is LoVo. The experiment in a line: CellTiter-Glo IG50, Example 8, LoVo. To be noted: Homo sapiens, 72 hours. The class given is cell-based. As for the experimental part: as §1, §2, §3, §4, §5, §6
Another assay relates to AGS. The experiment in a line: CellTiter-Glo IG50, Example 8, AGS. The class given is cell-based. The following applies: Homo sapiens, 72 hours. The protocol: as §1, §2, §3, §4, §5, §6
The test system of the next assay is MKN45. The experiment in a line: CellTiter-Glo IG50, Example 8, MKN45. Type of assay: cell-based. To be noted: Homo sapiens, MKN-45, MKN45, 72 hours. The protocol: as §1, §2, §3, §4, §5, §6
In the next assay the test system is KATO III. The experiment in a line: CellTiter-Glo IG50, Example 8, KATO III. The class given is cell-based. The following applies: Homo sapiens, 72 hours. As for the experimental part: as §1, §2, §3, §4, §5, §6
For a further assay, the target named is T1, c-Rel protein (Homo sapiens, UniProt Q04864).
T1 sequence (Q04864 1-619): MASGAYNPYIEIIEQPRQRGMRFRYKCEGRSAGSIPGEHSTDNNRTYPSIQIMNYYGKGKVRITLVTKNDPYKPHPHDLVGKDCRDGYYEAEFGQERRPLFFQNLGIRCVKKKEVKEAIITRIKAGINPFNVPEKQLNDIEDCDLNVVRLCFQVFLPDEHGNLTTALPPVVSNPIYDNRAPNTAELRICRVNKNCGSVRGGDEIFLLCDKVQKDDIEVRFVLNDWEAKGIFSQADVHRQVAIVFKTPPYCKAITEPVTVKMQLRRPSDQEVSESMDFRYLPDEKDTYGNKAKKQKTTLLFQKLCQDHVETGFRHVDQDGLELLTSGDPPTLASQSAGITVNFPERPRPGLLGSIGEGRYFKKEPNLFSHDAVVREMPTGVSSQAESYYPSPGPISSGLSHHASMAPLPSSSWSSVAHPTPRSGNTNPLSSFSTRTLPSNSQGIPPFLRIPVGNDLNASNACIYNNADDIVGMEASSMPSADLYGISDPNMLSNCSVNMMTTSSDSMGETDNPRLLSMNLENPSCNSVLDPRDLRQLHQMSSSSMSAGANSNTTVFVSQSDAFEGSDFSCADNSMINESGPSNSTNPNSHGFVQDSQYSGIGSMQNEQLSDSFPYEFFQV
Briefly: Electrophoretic Mobility Shift Assay (EMSA), c-Rel binding to CD28RE oligonucleotide. The following applies: 10 nM c-Rel protein. The protocol:
DNA binding reaction (20 μL) was carried out in 1×DNA Binding Buffer (10 mM Tris, 40 mM NaCl, 1 mM EDTA, 4% glycerol) with 10 nM c-Rel protein and 0.5 ng phosphor-labeled CD28RE oligonucleotide for 10 minutes at room temperature in 96-well plates. Test compounds, in serial dilutions, were added into each well, and further incubated for 15 minutes before loading onto native 5% polyacrylamide gel. Electrophoresis proceeded for 2.5 hours at 160V. Radioactive signals were quantified using Phospho-Imager. IC50 of compounds of example 1 to 75 were determined by quantifying the intensity of Rel/NF-κB inhibition in EMSA using phospho-imager. An example of EMSA data of the present invention is shown for compound 6 in FIG. 2.

The test system of the next assay is HepG2. The experiment in a line: CellTiter-Glo IG50, Example 9 HCC panel, HepG2. The class given is cell-based. The following applies: Homo sapiens, HepG2, 72 hours. The protocol: as §3, §4, §5, §6, §2
(§7) Following the cell culture protocol and data analysis methods described in Example 8, the following IG50 results (in μM) were observed: […]

The test system of a further assay is Hep3B. The experiment in a line: CellTiter-Glo IG50, Example 9 HCC panel, Hep3B. The class given is cell-based. The following applies: Homo sapiens, 72 hours. The protocol: as §3, §4, §5, §6, §2, §7
The test system of a further assay is PLC/PRF/5. The experiment in a line: CellTiter-Glo IG50, Example 9 HCC panel, PLC/PRF/5. The following applies: Homo sapiens, PLC/PRF/5, 72 hours. Type of assay: cell-based. The protocol:
as §3, §4, §5, §6, §2, §7

The test system of another assay is HUH7. Briefly: CellTiter-Glo IG50, Example 9 HCC panel, HUH7. The class given is cell-based. The following applies: Homo sapiens, Huh-7, HUH7, 72 hours. The protocol: as §3, §4, §5, §6, §2, §7
Another assay relates to JHH5. Briefly: CellTiter-Glo IG50, Example 9 HCC panel, JHH5. The class given is cell-based. To be noted: JHH5, 72 hours. As for the experimental part: as §3, §4, §5, §6, §2, §7
A further assay relates to PBMC. Briefly: CellTiter-Glo IG50, Example 9 HCC panel, PBMC. The following applies: 72 hours. Type of assay: cell-based. The protocol: as §3, §4, §5, §6, §2, §7
In a further assay the test system is SNU878. Briefly: CellTiter-Glo IG50, Example 9 HCC panel, SNU878. The class given is cell-based. To be noted: SNU878, 72 hours. The protocol: as §3, §4, §5, §6, §2, §7

With `O=c1[nH]cc(F)c(=O)[nH]1` [5-FU, 5-fluorouracil, reference compound], the IC50 in the assay with HCT116 is 5.2 µM; with HT-29, 15.9 µM; in the assay on LoVo, 27 µM; in the assay with AGS, 31.9 µM; in the assay with MKN45, 4.72 µM; with KATO III, greater than 64 µM.
`CC(=O)OCCCCOc1ccc2cc3c(=O)[nH]c(=O)nc-3oc2c1` [compound 51]: the half-inhibitory concentration (IC50) on c-Rel protein was less than 1 µM.
`O=C(O)CCCCCOc1ccc2cc3c(=O)[nH]c(=O)nc-3oc2c1Cl` [IT-855]: the IC50 was greater than 16 µM in the assay with HepG2; greater than 16 µM in the assay with Hep3B; greater than 16 µM with PLC/PRF/5; greater than 16 µM in the assay with HUH7; 8.15 µM in the assay on JHH5; greater than 16 µM with PBMC. In addition, it took 9.15 µM to reach half-maximal inhibition with SNU878 (IC50).
On to `CCCCCCOc1ccc2cc3c(=O)[nH]c(=O)nc-3oc2c1F` [compound 46], for which, at c-Rel protein, the IC50 is less than 0.5 µM.
The same measure, in the same setting: for `COCCCCOc1cc2oc3nc(=O)[nH]c(=O)c-3cc2cc1Cl` [compound 69] the value was less than 1 µM; for `CCCCn1c(=O)nc2oc3cc(OCC)c(Cl)cc3cc-2c1=O` [compound 26, 3-butyl-7-chloro-8-ethoxy-2H-chromeno[2,3-d]pyrimidine-2,4(3H)-dione], less than 1 µM; for `CCCCCCCOc1ccc2cc3c(=O)[nH]c(=O)nc-3oc2c1Cl` [compound 42], less than 0.5 µM.
Same read-out and setting: the value for `CCOc1cc2oc3nc(=O)[nH]c(=O)c-3cc2cc1F` [compound 28, 8-ethoxy-7-fluoro-2H-chromeno[2,3-d]pyrimidine-2,4(3H)-dione] was less than 0.5 µM; that for `COCCOCCCOc1cc2oc3nc(=O)[nH]c(=O)c-3cc2cc1Cl` [compound 74] was less than 1 µM; that for `Cc1cc2oc3nc(=O)[nH]c(=O)c-3cc2cc1F` [compound 27, 7-fluoro-8-methyl-2H-chromeno[2,3-d]pyrimidine-2,4(3H)-dione] was less than 0.5 µM.
For `CC(C)COc1ccc2cc3c(=O)[nH]c(=O)nc-3oc2c1F` [compound 48], the IC50 at c-Rel protein was less than 0.5 µM.
The same measure, in the same setting: for `COCCOCCCOc1ccc2cc3c(=O)[nH]c(=O)nc-3oc2c1F` [compound 73] the value was less than 1 µM.
Still for that read-out and setting: for `COc1cc(Cl)cc2cc3c(=O)[nH]c(=S)nc-3oc12` [compound 7, 7-chloro-9-methoxy-2-thioxo-2H-chromeno[2,3-d]pyrimidin-4(3H)-one] the value was less than 2 µM; for `CCCOc1cc2oc3nc(=O)[nH]c(=O)c-3cc2cc1Cl` [compound 20, 7-chloro-8-propoxy-2H-chromeno[2,3-d]pyrimidine-2,4(3H)-dione], less than 1 µM.
Same read-out and setting: for `COCCCCOc1cc2oc3nc(=O)[nH]c(=O)c-3cc2cc1F` [compound 70] the value was less than 1 µM; for `CCCCCOc1ccc2cc3c(=O)[nH]c(=O)nc-3oc2c1Cl` [compound 39], less than 0.5 µM.

Broadly, the IC50 is the concentration that inhibits the measured activity by half.
